The values below come from US7074761B1, “Peptides and production and use thereof” (Takeda Chemical Ind., Ltd., priority 1996, dated 2006).

Usually IC50 stands for the concentration that inhibits the measured activity by half. Read a low IC50 as inhibition by little substance.

Where a SMILES comes first, the peptide text is derived from it. Bridges are numbered along the chain shown (N, C = ends).

One assay has as its target T1, human SSTR1 (Homo sapiens, UniProt P30872).
T1 construct: expressed in transfected cells; host or cells: CHO(dhfr-) cells, clone SSTR1-8-3, plasmid pA-1-11-SSTR1 (vector pAKKO-111)
The assay can be described thus: [125I]-somatostatin binding inhibition, SSTR1 CHO cell membrane fraction. As to conditions: 25° C., 60 minutes. As to the method:
CHO(dhfr^−) cells (1×10^6 cells) were cultured on HAM F12 medium containing 10% fetal bovine serum in a dish with a diameter of 8 cm for 24 hours. Into these cells was introduced 10 μg of the human SSTR1 cDNA expression plasmid pA-1-11-SSTR1 obtained as described above in (2) by the calcium phosphate method (Cell Phect Transfection Kit; Pharmacia). At 24 hours after transfection, the medium was exchanged for Dulbecco's modified Eagle's medium (DMEM) containing 10% dialyzed fetal bovine serum, and cells forming a colony on this medium (namely DHFR^+ cells) were selected. Further, the cells selected were treated by the limiting dilution method for cloning from a single cell, and the somatostatin receptor protein activity was measured in the following manner. […] The [^125I] on the filter paper was measured with a γ counter. […]
The membrane fractions prepared in Reference Example 6 were each diluted to 3 μg/ml with assay buffer. […] After filtration, the radioactivity of [^125I]-somatostatin remaining on the filter paper was measured. For each test substance, the binding inhibition percentage (%) was calculated according to the formula: PBM=(B−NSB)/(B0−NSB)×100 (where PBM: percent maximum binding; B: radioactivity when the test sample is added; B0: maximum bound radioactivity; NSB: non-specifically bound radioactivity). […]

In the next assay the target is T2, human SSTR5 (Homo sapiens, UniProt P35346).
T2 construct: expressed in transfected cells; host or cells: CHO(dhfr-) cells, clone SSTR5-32-4, plasmid pA-1-11-SSTR5 (vector pAKKO-111)
T2 sequence (P35346 whole entry): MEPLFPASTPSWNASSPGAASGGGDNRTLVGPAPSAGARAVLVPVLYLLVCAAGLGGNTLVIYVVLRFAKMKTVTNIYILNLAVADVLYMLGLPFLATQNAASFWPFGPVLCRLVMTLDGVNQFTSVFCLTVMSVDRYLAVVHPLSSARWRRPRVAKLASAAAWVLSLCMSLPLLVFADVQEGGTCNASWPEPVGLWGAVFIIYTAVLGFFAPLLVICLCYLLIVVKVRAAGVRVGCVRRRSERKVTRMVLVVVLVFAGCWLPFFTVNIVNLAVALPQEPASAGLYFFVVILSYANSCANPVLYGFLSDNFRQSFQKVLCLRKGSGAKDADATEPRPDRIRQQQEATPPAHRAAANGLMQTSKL
Description: cAMP accumulation inhibiting activity in SSTR5 expressing CHO cells (forskolin stimulated). Type of assay: cell-based. As to conditions: forskolin 10 μM, CHO cells SSTR5-32-4; read-out: ED50, inhibition of intracellular cAMP accumulation, SSTR5. As to the method:
For measuring the intracellular accumulations of cyclic adenosine 3′,5′-monophosphate (cAMP), the human somatostatin receptor expressing cell lines SSTR2-HS5-9, SSTR3-15-19, SSTR4-1-2 and SSTR5-32-4 respectively described in Reference Example 2 (3), Reference Example 3 (3), Reference Example 4 (3) and Reference Example 5 (3) were multiplied on 24-well plates until confluency. Said cells were washed with two 1-ml portions of medium A [Dulbecco-'s modified Eagle's medium (DMEM), 20 mM 2-[4-(2-hydroxyethyl)-1-piperazinyl]ethanesulfonic acid (HEPES) (pH. 7.5), 0.2% BSA, 0.2 mM 3-isobutyl-1-methylxanthine (IBMX)] and then 400 μl of medium A was added to each well and incubation was carried out at 37° C. for 1 hour. To each well were added 50 μl of a hCS-15 or hCS-17 solution (each diluted to a concentration 10 times the final concentration with medium A) and 50 μl of a forskolin solution (final concentration: 10 μM), and incubation was carried out at 37° C. for 30 minutes. The cells were washed with two 1-ml portions of medium A and then 500 μl of medium A and 100 μL of 20% aqueous perchloric acid solution were added to each well, followed by standing at 4° C. for 20 minutes for cell lysis. […] The amount of cAMP contained in this extract was determined using an Amersham's kit (cAMP EIA system).
On the technique in general: Cyclic AMP is a second messenger, typically raised through Gs and lowered through Gi signalling.

T1 sequence (P30872 whole entry): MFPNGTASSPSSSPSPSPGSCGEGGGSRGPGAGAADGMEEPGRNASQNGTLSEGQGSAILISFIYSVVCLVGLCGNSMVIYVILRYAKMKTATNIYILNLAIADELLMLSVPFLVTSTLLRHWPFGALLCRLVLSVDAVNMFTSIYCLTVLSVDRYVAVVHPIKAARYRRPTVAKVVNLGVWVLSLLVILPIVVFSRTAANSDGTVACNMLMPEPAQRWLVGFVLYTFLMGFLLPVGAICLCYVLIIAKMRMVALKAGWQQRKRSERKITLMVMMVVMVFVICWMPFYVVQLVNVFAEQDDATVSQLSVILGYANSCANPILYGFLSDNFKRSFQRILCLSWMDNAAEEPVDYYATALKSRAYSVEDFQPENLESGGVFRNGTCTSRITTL

At human SSTR1, `CSCC[C@H](NC(=O)[C@H](CCCNC(=N)N)NC(=O)[C@@H](N)CC(=O)O)C(=O)N1CCC[C@H]1C(=O)N[C@H]1CSSC[C@@H](C(=O)N[C@@H](CCCCN)C(=O)O)NC(=O)[C@H](CO)NC(=O)[C@H](CO)NC(=O)[C@H](Cc2ccccc2)NC(=O)[C@H]([C@@H](C)O)NC(=O)[C@H](CCCCN)NC(=O)[C@H](Cc2c[nH]c3ccccc23)NC(=O)[C@H](Cc2ccccc2)NC(=O)[C@H](Cc2ccccc2)NC(=O)[C@H](CC(N)=O)NC(=O)[C@H](CCCNC(=N)N)NC1=O` [hCS-17] came in with an IC50 of 7 nM. Also, at human SSTR5, the EC50 is 0.2 nM.
The compound `CSCC[C@H](N)C(=O)N1CCC[C@H]1C(=O)N[C@H]1CSSC[C@@H](C(=O)N[C@@H](CCCCN)C(=O)O)NC(=O)[C@H](CO)NC(=O)[C@H](CO)NC(=O)[C@H](Cc2ccccc2)NC(=O)[C@H]([C@@H](C)O)NC(=O)[C@H](CCCCN)NC(=O)[C@H](Cc2c[nH]c3ccccc23)NC(=O)[C@H](Cc2ccccc2)NC(=O)[C@H](Cc2ccccc2)NC(=O)[C@H](CC(N)=O)NC(=O)[C@H](CCCNC(=N)N)NC1=O` [hCS-15] (H-MPCRNFFWKTFSSCK-OH; disulfide 3-14; N-terminus and C-terminus assumed) returned an IC50 on human SSTR1 of 7 nM. In addition, the EC50 on human SSTR5 is 0.2 nM.
